Consider eleven compounds from US20260265304A1, “PEPTIDE INHIBITORS OF FOCAL ADHESION KINASE ACTIVITY AND USES THEREOF” (Arizona Board of Regents on Behalf of the University of …, priority 2019, published 2026).

Like-named read-outs stand apart in the source and are kept apart here. Positions of bridges follow the written chain, without caps; N, C: chain ends. Non-standard residues stand in square brackets, D forms with d. Residues, ends and D or L forms follow the SMILES beside them. *: point of attachment. Myristoyl = CCCCCCCCCCCCCC(=O)*; R8 = C=CCCCCCC[C@@](C)(N)C(=O)O; R5 = C=CCCC[C@@](C)(N)C(=O)O; S5 = C=CCCC[C@](C)(N)C(=O)O Some results are limits rather than exact numbers.

In assay [1] the target is T1, FAK FAT domain (paxillin-FAT binding) (Homo sapiens, UniProt Q05397).
T1 construct: FP Buffer containing 20 μM FAT and 0.1 μM TAMRA-LD2
T1 sequence (Q05397 914-1045 limits assumed): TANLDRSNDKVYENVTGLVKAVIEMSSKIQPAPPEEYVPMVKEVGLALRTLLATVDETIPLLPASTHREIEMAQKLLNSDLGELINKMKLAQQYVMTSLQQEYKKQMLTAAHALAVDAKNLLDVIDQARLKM
Kind of assay: Competition fluorescence polarization (FP) assay, inhibition of TAMRA-LD2 binding to FAT. How it is done:
The FP assay buffer used was 20 mM Tris, 200 mM NaCl, 0.05% β-me, 0.1% Triton X-100, 5% glycerol, and 1× Halt protease inhibitor cocktail. […] Bodipy TMR FP optical module (2100-4100) was used as the mirror.
Wells with no FAT were used as a baseline value which was subtracted from the raw values to produce ΔmP values. The plate was read at every hour for four hours to test for time differences in IC50. The titration data was processed through GraphPad Prism to produce a dose response curve and a calculated IC50 with standard error (SE). A four-parameter dose-response inhibition model was utilized and the bottom fit was constrained to the lower plateau of the curve. Ki was determined from the following calculation:
P0 is the concentration of free protein and KD is calculated from the saturation curve. 150 is calculated by the following equation:
where PT is the total protein concentration, LT is the total labeled-ligand concentration, P0 is the positive root of P0^2+(KD+LT)*P0−PT, PL0=P−P0, PL50=PL0/2, L0=LT-PL0, and L50=LT-PL50.

Assay [2] concerns the target T2, FAK FAT domain (biotinylated Avitag-FAT protein) (Homo sapiens, UniProt Q05397).
T2 construct: biotinylated Avitag-FAT protein was diluted in running buffer
T2 sequence (Q05397 914-1045 limits assumed): T1 sequence (Q05397 914-1045 limits assumed)
Description: Surface plasmon resonance (SPR) binding to immobilised FAT protein. The note with it: for Kd: FAT protein immobilised, peptide 200 μM-0.01 μM, 1:1 binding model; for binding and inhibitory properties (SPR/FP) in words, compared to 1907: SAR discussion of SPR and FP data. How it is done: SPR binding studies were performed on a ForteBio Pioneer FE SPR system. In brief, a SADH Streptavidin in Dextran Hydrogel biosensor (ForteBio) was docked onto the flow cell and preconditioned with two injections of 10 mM NaOH, 1 M NaCl for 1 min at 50 μL/min. […] Empty channel 2 served as the reference control. After achieving a stable baseline, a concentration series (200 μM-0.01 μM) of peptide was prepared in final running buffer (100 mM Tris-HCl, 200 mM NaCl, 0.05% Tween-20, 5% DMSO) and injected using the OneStep gradient injection method at a flow rate of 75 μL/min. […] Raw SPR data were appropriately processed in Qdat software (ForteBio) by normalizing the baseline prior to injection, aligning the channels, subtraction of the reference channel, and blank subtraction. Kinetic data were fitted to a pseudo-first order 1:1 interaction binding model using to calculate KD. In addition, a steady-state model and Req data points were used to validate the binding affinity. Visual inspection of the SPR sensograms was performed to verify appropriate model fitting, lack of mass transport effects, return to baseline, and lack of irregular kinetics.
A general note: Surface plasmon resonance follows binding to a sensor surface in real time, without labels.

`CC(=O)N[C@@H](CC(=O)O)C(=O)N[C@@H](CC(C)C)C(=O)N[C@]1(C)CCCCCCC=CCCC[C@@](C)(C(=O)N[C@@H](CCC(=O)O)C(=O)N[C@@H](CC(C)C)C(=O)N[C@@H](CC(=O)O)C(N)=O)NC(=O)[C@H](CC(C)C)NC(=O)[C@H](CC(C)C)NC(=O)[C@H](CCCNC(=N)N)NC(=O)[C@H](CC(=O)O)NC(=O)[C@H](CC(C)C)NC(=O)[C@H](CCC(=O)O)NC1=O` [Peptide 1913, Ac-DLR8ELDRLLS5ELD-NH2] (Ac-DL[R8]ELDRLL[S5]ELD-NH2; staple 3-10): in assay [1] (read-out: FP Ki), the Ki amounted to 21.8 µM. The Kd in assay [2] (read-out: SPR KD) was 13.7 µM.

With `CSCC[C@@H]1NC(=O)[C@H](Cc2ccccc2)NC(=O)[C@H](CCCNC(=N)N)NC(=O)[C@H](CC(C)C)NC(=O)[C@H](CCCNC(=N)N)NC(=O)[C@H](C)NC(=O)[C@](C)(NC(=O)[C@H](CCCNC(=N)N)NC(=O)[C@H](CCCNC(=N)N)NC(C)=O)CCCCCCC=CCCC[C@@](C)(C(=O)N[C@@H](CCC(N)=O)C(=O)N[C@@H](Cc2ccccc2)C(=O)N[C@@H](Cc2ccc(O)cc2)C(N)=O)NC1=O` [Peptide 1929, Ac-RRR8ARLRFMS5QFY-NH2] (Ac-RR[R8]ARLRFM[S5]QFY-NH2; staple 3-10), in assay [1] (read-out: FP Ki), the Ki was over 1250 µM. The Kd in assay [2] (read-out: SPR KD) was 77.6 µM. The “binding and inhibitory properties (SPR/FP) in words, compared to 1907” value in assay [2] was “did not have comparable activity to LD2-derived 1907”.

On to `CC(=O)N[C@@H](CC(N)=O)C(=O)N[C@@H](CC(C)C)C(=O)N[C@]1(C)CCCCCCC=CCCC[C@@](C)(C(=O)N[C@@H](CCC(N)=O)C(=O)N[C@@H](CC(C)C)C(=O)N[C@@H](CC(N)=O)C(N)=O)NC(=O)[C@H](CC(C)C)NC(=O)[C@H](CC(C)C)NC(=O)[C@H](CCCNC(=N)N)NC(=O)[C@H](CC(=O)O)NC(=O)[C@H](CC(C)C)NC(=O)[C@H](CCC(N)=O)NC1=O` [Peptide 1910, Ac-NLR8QLDRLLS5QLN-NH2] (Ac-NL[R8]QLDRLL[S5]QLN-NH2; staple 3-10), for which, in assay [1] (read-out: FP Ki), the Ki worked out at 46.8 µM. For the same compound, the Kd in assay [2] (read-out: SPR KD) is 24.8 µM. Further, the “binding and inhibitory properties (SPR/FP) in words, compared to 1907” value in assay [2] is “not as active as 1907”.

On to `CC(=O)N[C@@H](CC(N)=O)C(=O)N[C@@H](CC(C)C)C(=O)N[C@]1(C)CCCCCCC=CCCC[C@@](C)(C(=O)N[C@@H](CCC(=O)O)C(=O)N[C@@H](CCC(=O)O)C(=O)N[C@@H](CC(N)=O)C(N)=O)NC(=O)[C@H](CC(C)C)NC(=O)[C@H](CC(C)C)NC(=O)[C@H](CCCNC(=N)N)NC(=O)[C@H](CC(=O)O)NC(=O)[C@H](CCC(=O)O)NC(=O)[C@H](CCC(=O)O)NC1=O` [Peptide 2014, Ac-NLR8EEDRLLS5EEN-NH2] (Ac-NL[R8]EEDRLL[S5]EEN-NH2; staple 3-10), for which the “binding and inhibitory properties (SPR/FP) in words, compared to 1907” value in assay [2] is “completely no binding and inhibitory properties”.

Regarding `CC(=O)N[C@@H](CC(N)=O)C(=O)N[C@@H](CC(C)C)C(=O)N[C@@H](CO)C(=O)N[C@@H](CCC(=O)O)C(=O)N[C@]1(C)CCCC=CCCC[C@@](C)(C(=O)N[C@@H](CC(C)C)C(=O)N[C@@H](CC(C)C)C(=O)N[C@@H](CCC(=O)O)C(=O)N[C@@H](CC(C)C)C(=O)N[C@@H](CC(N)=O)C(N)=O)NC(=O)[C@H](CCCNC(=N)N)NC(=O)[C@H](CC(=O)O)NC1=O` [Peptide 2022, Ac-NLSER5DRS5LLELN-NH2] (Ac-NLSE[R5]DR[S5]LLELN-NH2; staple 5-8), in assay [1] (read-out: FP Ki), the Ki amounted to 341 µM. Besides, the Kd in assay [2] (read-out: SPR KD) is 911 µM. In assay [2], the “binding and inhibitory properties (SPR/FP) in words, compared to 1907” value is given as “did not show much activity compared to 1907”.

Compound `CC(=O)N[C@@H](CC(N)=O)C(=O)N[C@@H](CC(C)C)C(=O)N[C@@H](CO)C(=O)N[C@@H](CCC(=O)O)C(=O)N[C@@H](CC(C)C)C(=O)N[C@@H](CC(=O)O)C(=O)N[C@@H](CCCNC(=N)N)C(=O)N[C@@]1(C)CCCC=CCCC[C@@](C)(C(=O)N[C@@H](CC(N)=O)C(N)=O)NC(=O)[C@H](CCC(=O)O)NC(=O)[C@H](CC(C)C)NC(=O)[C@H](CC(C)C)NC1=O` [Peptide 2015] (Ac-NLSELDR[S5]LLE[S5]N-NH2; staple 8-12) registered a Ki in assay [1] of 114 µM. In addition, the “binding and inhibitory properties (SPR/FP) in words, compared to 1907” value in assay [2] is reported as “did not show much activity compared to 1907”. For the same compound, in assay [2] (SPR KD), binding was put at a Kd of 47.5 µM.

For `CC(=O)N[C@@H](CC(N)=O)C(=O)N[C@@H](CC(C)C)C(=O)NC(C)(C)C(=O)N[C@@H](CCC(=O)O)C(=O)N[C@@H](CC(C)C)C(=O)N[C@@H](CC(=O)O)C(=O)N[C@@H](CCCNC(=N)N)C(=O)N[C@@H](CC(C)C)C(=O)N[C@@H](CC(C)C)C(=O)NC(C)(C)C(=O)N[C@@H](CCC(=O)O)C(=O)N[C@@H](CC(C)C)C(=O)N[C@@H](CC(N)=O)C(N)=O` [Peptide 1912, Ac-NLAibELDRLLAibELN-NH2], the “binding and inhibitory properties (SPR/FP) in words, compared to 1907” value in assay [2] is recorded as “lower activity compared to 1907”.

`CCCCCCCCCCCCCC(=O)NCCCC[C@@H]1NC(=O)[C@H](CC(=O)O)NC(=O)[C@H](CC(C)C)NC(=O)[C@H](CCC(=O)O)NC(=O)[C@](C)(NC(=O)[C@H](CC(C)C)NC(=O)[C@H](CC(N)=O)NC(C)=O)CCCCCCC=CCCC[C@@](C)(C(=O)N[C@@H](CCC(=O)O)C(=O)N[C@@H](CC(C)C)C(=O)N[C@@H](CC(N)=O)C(N)=O)NC(=O)[C@H](CC(C)C)NC(=O)[C@H](CC(C)C)NC1=O` [Peptide 2029, Ac-NLR8ELDK(myristoyl)LLS5ELN-NH2] (Ac-NL[R8]ELDK(Myristoyl)LL[S5]ELN-NH2; staple 3-10) yielded a Kd in assay [2] (SPR KD) of 19.5 µM.

Turning to `CC(=O)N[C@@H](CC(N)=O)C(=O)N[C@@H](CC(C)C)C(=O)N[C@@H](CO)C(=O)N[C@]1(C)CCCCCCC=CCCC[C@@](C)(C(=O)N[C@@H](CC(C)C)C(=O)N[C@@H](CC(N)=O)C(N)=O)NC(=O)[C@H](CC(C)C)NC(=O)[C@H](CC(C)C)NC(=O)[C@H](CC(C)C)NC(=O)[C@H](CCCNC(=N)N)NC(=O)[C@H](CC(=O)O)NC(=O)[C@H](CC(C)C)NC1=O` [Peptide 1905, Ac-NLSR8LDRLLLS5LN-NH2] (Ac-NLS[R8]LDRLLL[S5]LN-NH2; staple 4-11), the Kd in assay [2] (read-out: SPR KD) is over 200 µM. The “binding and inhibitory properties (SPR/FP) in words, compared to 1907” value in assay [2] is “no binding and inhibitory properties”.

Take `CC(=O)N[C@]1(C)CCCCCCC=CCCC[C@@](C)(C(N)=O)NC(=O)[C@H](CC(C)C)NC(=O)[C@H](CC(C)C)NC(=O)[C@H](CCCNC(=N)N)NC(=O)[C@H](CC(=O)O)NC(=O)[C@H](CC(C)C)NC(=O)[C@H](CCC(=O)O)NC1=O` [Peptide 2011, Ac-R8ELDRLLS5-NH2] (Ac-[R8]ELDRLL[S5]-NH2; staple 1-8): in assay [2], the “binding and inhibitory properties (SPR/FP) in words, compared to 1907” value was “no binding and inhibitory properties”.

Consider `CC(=O)N[C@@H](CC(N)=O)C(=O)N[C@@H](CC(C)C)C(=O)N[C@@H](CO)C(=O)N[C@@H](CCC(=O)O)C(=O)N[C@]1(C)CCCCCCC=CCCC[C@@](C)(C(=O)N[C@@H](CC(N)=O)C(N)=O)NC(=O)[C@H](CCC(=O)O)NC(=O)[C@H](CC(C)C)NC(=O)[C@H](CC(C)C)NC(=O)[C@H](CC(C)C)NC(=O)[C@H](CCCNC(=N)N)NC(=O)[C@H](CC(=O)O)NC1=O` [Peptide 1914, Ac-NLSER8DRLLLES5N-NH2] (Ac-NLSE[R8]DRLLLE[S5]N-NH2; staple 5-12), for which the Kd in assay [2] (read-out: SPR KD) came out at 64.3 µM. The “binding and inhibitory properties (SPR/FP) in words, compared to 1907” value in assay [2] is “limited activity compared to 1907”.

What is called Ki is a measure of affinity in units of concentration, obtained from inhibition or displacement. In general, Kd refers to the free concentration of one partner at which half of the binding sites on the other are occupied at equilibrium, for simple one-to-one binding.
